Literature values, collected in patent publication US20150050250A1, “CELL THERAPY TECHNOLOGY TO DELIVER RADIO-PROTECTIVE PEPTIDES” (UNIVERSITY OF SOUTHERN CALIFORNIA, priority 2012, published 2015).

Tests used:
[1] = test system: fibroblasts; settings: BBI peptide at 20 μM added directly to the tissue culture medium
[2] = test system: normal tissue

Row | Molecule | protection of fibroblasts from ionizing radiation [1] | radioprotection of normal tissue in vivo [2]
1 | CALSYPAQCFC (portion of Soybean Bowman Birk protease inhibitor) [BBI peptide] | protected fibroblasts from ionizing radiation | 
2 | Bowman Birk protease inhibitor (protein, Soybean) DDESSKPCCDQCACTKSNPPQCRCSDMRLNSCHSACKSCICALSYPAQCFCVDITDFCYEPCKPSEDDKEN |  | selective radioprotection to normal tissue in vivo
